# Measurements reported in ChEMBL document CHEMBL1201862, “PubChem BioAssay data set” (2004).
#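 Exposure lasted 48 hours, with cells grown in 96-well plates and compounds tested at five concentrations. GI50: concentration for 50% inhibition of growth.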 Activity calls are given as the source filed them. No stated cut-off is given here; in the data, active = GI50 up to about 1.1 µM and inactive = higher.
# How the values were obtained:
# Assay in all cases: NCI anticancer screen, dose series, 48 h
# [1] = test system: HL-60
# [2] = test system: A498
# [3] = test system: DU-145
# [4] = test system: PC-3
# [5] = test system: NCI-H23
# [6] = test system: EKVX
# [7] = test system: UACC-257
# [8] = test system: SK-OV-3
# [9] = test system: NCI-H522
# [10] = test system: MDA-MB-231
# [11] = test system: HCC 2998
# [12] = test system: HOP-62
# [13] = test system: M14
# [14] = test system: Hs-578T
# [15] = test system: SNB-19
# [16] = test system: HT-29
# [17] = test system: IGROV-1
# [18] = test system: NCI-H460
# [19] = test system: OVCAR-3
SMILES,GI50 [1],GI50 [2],GI50 [3],GI50 [4],GI50 [5],GI50 [6],GI50 [7],GI50 [8],GI50 [9],GI50 [10],GI50 [11],GI50 [12],GI50 [13],GI50 [14],GI50 [15],GI50 [16],GI50 [17],GI50 [18],GI50 [19]
C=C(Br)CNC(=O)CCC(=O)NCC(=C)Br,> 100 µM (inactive),> 100 µM (inactive),> 100 µM (inactive),> 100 µM (inactive),> 100 µM (inactive),> 100 µM (inactive),> 100 µM (inactive),> 100 µM (inactive),> 100 µM (inactive),> 100 µM (inactive),> 100 µM (inactive),> 100 µM (inactive),> 100 µM (inactive),> 100 µM (inactive),> 100 µM (inactive),> 100 µM (inactive),> 100 µM (inactive),> 100 µM (inactive),> 100 µM (inactive)
c1ccc2c(c1)CN1CCCC1CN2 (stereo unspecified),> 100 µM (inactive),> 100 µM (inactive),> 100 µM (inactive),> 100 µM (inactive),> 100 µM (inactive),> 100 µM (inactive),> 100 µM (inactive),> 100 µM (inactive),> 100 µM (inactive),> 100 µM (inactive),> 100 µM (inactive),> 100 µM (inactive),> 100 µM (inactive),> 100 µM (inactive),> 100 µM (inactive),> 100 µM (inactive),> 100 µM (inactive),> 100 µM (inactive),> 100 µM (inactive)
OCCn1cnc2c(SCc3ccccc3)ncnc21,68.1 µM (inactive),> 100 µM (inactive),> 100 µM (inactive),61 µM (inactive),> 100 µM (inactive),> 100 µM (inactive),> 100 µM (inactive),> 100 µM (inactive),97.9 µM (inactive),> 100 µM (inactive),> 100 µM (inactive),> 100 µM (inactive),> 100 µM (inactive),69.7 µM (inactive),> 100 µM (inactive),> 100 µM (inactive),> 100 µM (inactive),19.6 µM (inactive),> 100 µM (inactive)
CC(C)(C)OC(=O)[C@@H]1CCC(=O)N1C1(c2ccccc2)c2ccccc2-c2ccccc21,37.2 µM (inactive),64.7 µM (inactive),97.1 µM (inactive),29.4 µM (inactive),62.4 µM (inactive),82.8 µM (inactive),77.1 µM (inactive),> 100 µM (inactive),26.9 µM (inactive),16.4 µM (inactive),52.8 µM (inactive),58.5 µM (inactive),50.4 µM (inactive),33.5 µM (inactive),> 100 µM (inactive),23.7 µM (inactive),56.4 µM (inactive),30.5 µM (inactive),27.4 µM (inactive)
CCc1nc(N)nc(N)c1-c1ccc2nn(-c3ccccc3)[n+]([O-])c2c1,0.902 µM (active),8.43 µM (inactive),6.14 µM (inactive),1.23 µM (inactive),1.87 µM (inactive),7.96 µM (inactive),10.6 µM (inactive),39.1 µM (inactive),2.83 µM (inactive),11.7 µM (inactive),4.59 µM (inactive),5.82 µM (inactive),1.33 µM (inactive),17.9 µM (inactive),16.3 µM (inactive),1.26 µM (inactive),1.67 µM (inactive),0.361 µM (active),7.62 µM (inactive)
Nc1nc2c(c(-c3ccccc3Cl)n1)COC/C2=C\c1ccccc1Cl,3.08 µM (inactive),16.4 µM (inactive),16.9 µM (inactive),14.3 µM (inactive),17.1 µM (inactive),18.3 µM (inactive),18.7 µM (inactive),16.1 µM (inactive),14.6 µM (inactive),16.9 µM (inactive),19.5 µM (inactive),18.1 µM (inactive),15.7 µM (inactive),21.8 µM (inactive),15.7 µM (inactive),–,15.8 µM (inactive),18.6 µM (inactive),17.4 µM (inactive)
COc1ccc(N2C(=O)C3c4[nH]c5cccc(C)c5c4C4CCC(C(C)(C)C)CC4C3C2=O)cc1 (stereo unspecified),> 10 µM (inactive),> 10 µM (inactive),> 10 µM (inactive),> 10 µM (inactive),> 10 µM (inactive),> 10 µM (inactive),–,> 10 µM (inactive),> 10 µM (inactive),> 10 µM (inactive),> 10 µM (inactive),> 10 µM (inactive),> 10 µM (inactive),> 10 µM (inactive),> 10 µM (inactive),> 10 µM (inactive),> 10 µM (inactive),4.68 µM (inactive),> 10 µM (inactive)
O=C(C1OC1c1ccc(Cl)cc1)C12CC3CC(CC(C3)C1)C2 (stereo unspecified),18.3 µM (inactive),23.7 µM (inactive),29.1 µM (inactive),29 µM (inactive),14.4 µM (inactive),23.1 µM (inactive),21.6 µM (inactive),31 µM (inactive),20.9 µM (inactive),23.6 µM (inactive),19.1 µM (inactive),24.8 µM (inactive),17.8 µM (inactive),28.4 µM (inactive),31.5 µM (inactive),21 µM (inactive),23.6 µM (inactive),14.9 µM (inactive),15.8 µM (inactive)
CCN(C(=O)N[C@H](C(=O)N[C@@H](C)C(=O)OC)C(C)C)c1ccccc1,23.4 µM (inactive),46.3 µM (inactive),> 100 µM (inactive),39.1 µM (inactive),64.3 µM (inactive),> 100 µM (inactive),20 µM (inactive),> 100 µM (inactive),19 µM (inactive),> 100 µM (inactive),17.4 µM (inactive),> 100 µM (inactive),31 µM (inactive),32.9 µM (inactive),64.3 µM (inactive),38.8 µM (inactive),28.1 µM (inactive),24 µM (inactive),51.2 µM (inactive)
Nc1nc2c(c(-c3ccc(F)cc3)n1)COC/C2=C\c1ccc(F)cc1,39.1 µM (inactive),> 100 µM (inactive),> 100 µM (inactive),43.3 µM (inactive),45.6 µM (inactive),18.6 µM (inactive),45.6 µM (inactive),> 100 µM (inactive),10.8 µM (inactive),> 100 µM (inactive),30.8 µM (inactive),34.6 µM (inactive),> 100 µM (inactive),33.4 µM (inactive),24.8 µM (inactive),15.8 µM (inactive),40.6 µM (inactive),15.5 µM (inactive),51.4 µM (inactive)
Cc1c(-c2ccccc2)c(C#N)c2nnn(-c3ccc([N+](=O)[O-])cc3)c(=O)n12,1.92 µM (inactive),19.9 µM (inactive),5.38 µM (inactive),3.48 µM (inactive),21.3 µM (inactive),6.32 µM (inactive),> 100 µM (inactive),23.4 µM (inactive),10.2 µM (inactive),8.15 µM (inactive),26.6 µM (inactive),13.6 µM (inactive),–,14.1 µM (inactive),–,8.99 µM (inactive),10.2 µM (inactive),22.5 µM (inactive),15.3 µM (inactive)
COC(=O)c1cc2c3c(c1)Oc1cc(C(=O)OC)cc4c1C3c1c(cc(C(=O)OC)cc1O4)O2,3.03 µM (inactive),> 76.2 µM (inactive),5.14 µM (inactive),10.4 µM (inactive),25.1 µM (inactive),16.4 µM (inactive),27.4 µM (inactive),16.6 µM (inactive),3.19 µM (inactive),17.1 µM (inactive),31.8 µM (inactive),11.4 µM (inactive),26.6 µM (inactive),15.3 µM (inactive),20 µM (inactive),0.802 µM (active),11.9 µM (inactive),23.8 µM (inactive),10.3 µM (inactive)
N#Cc1nc(COCCOCc2ccccc2)oc1N,> 100 µM (inactive),> 100 µM (inactive),> 100 µM (inactive),> 100 µM (inactive),> 100 µM (inactive),> 100 µM (inactive),> 100 µM (inactive),> 100 µM (inactive),23 µM (inactive),> 100 µM (inactive),> 100 µM (inactive),> 100 µM (inactive),> 100 µM (inactive),> 100 µM (inactive),> 100 µM (inactive),> 100 µM (inactive),> 100 µM (inactive),> 100 µM (inactive),> 100 µM (inactive)
CON(C(=O)OC(C)(C)C)c1ccccc1,> 100 µM (inactive),> 100 µM (inactive),> 100 µM (inactive),> 100 µM (inactive),> 100 µM (inactive),> 100 µM (inactive),> 100 µM (inactive),> 100 µM (inactive),> 100 µM (inactive),> 100 µM (inactive),> 100 µM (inactive),> 100 µM (inactive),> 100 µM (inactive),> 100 µM (inactive),> 100 µM (inactive),> 100 µM (inactive),> 100 µM (inactive),> 100 µM (inactive),> 100 µM (inactive)
CC(C)SC(=S)Sc1c(Cl)c(Cl)nc(Cl)c1Cl,2.44 µM (inactive),17.1 µM (inactive),3.94 µM (inactive),4.93 µM (inactive),12.3 µM (inactive),8.22 µM (inactive),3.52 µM (inactive),17.8 µM (inactive),4.9 µM (inactive),12.7 µM (inactive),3.31 µM (inactive),5.85 µM (inactive),12.4 µM (inactive),18.6 µM (inactive),7.55 µM (inactive),3.4 µM (inactive),7.33 µM (inactive),17.1 µM (inactive),1.85 µM (inactive)
